Series [1] relates to SARS-CoV-2. As to the kind of experiment: microbe, parasite or virus in culture. The following applies: Severe acute respiratory syndrome coronavirus 2, Calu-3, 24 h. It counts as cell-based.
Series [2] has as its target M^pro (Severe acute respiratory syndrome coronavirus 2, UniProt P0DTD1). The series is classed as biochemical. The following applies: FRET assay, 0.1 to 50 μM.
The conditions of series [3]: human, cited from earlier work.
Series [4] is described as follows: Cytotoxicity (CC50) in Vero cells. The following applies: African green monkey.
Series [5] in a line: Cytotoxicity (CC50) in Calu-3 cells. The settings on record: human.
For series [6], the system named is SARS-CoV-2. Briefly: microbe, parasite or virus in culture. The settings on record: Severe acute respiratory syndrome coronavirus 2, Vero, 24 h, read-out: SARS-CoV-2 IC50 in Vero cells.
The nature of series [7]: in vitro. The following applies: African green monkey.
Series [8] in a line: in vitro. The settings on record: human.
In series [9] the test system is SARS-CoV-2. Briefly: Checkerboard drug combination assay, SARS-CoV-2 inhibition in Vero cells. The series is classed as cell-based. The following applies: Severe acute respiratory syndrome coronavirus 2, Vero, read-out: Relative viral inhibition (%); for inhibition at 0.69 µM: Tipifarnib 0.69 μM; for inhibition at 1.38 µM: Tipifarnib 1.38 μM; for inhibition at 2.75 µM: Tipifarnib 2.75 μM; for inhibition at 5.5 µM: Tipifarnib 5.50 μM; for inhibition at 11 µM: Tipifarnib 11.00 μM; for inhibition at 22.01 µM: Tipifarnib 22.01 μM; for inhibition at 44.02 µM: Tipifarnib 44.02 μM.

Series [10] is described as follows: in vitro. The settings on record: African green monkey, Relative cell viability (%).
Series [11] concerns SARS-CoV-2. The settings on record: assay validation with reference drugs.
[12] abbreviates: read-out: Approx. Cmax (maximum serum concentration), oral.

Each structure is given as a SMILES string. Where two headings read alike, the source gives them in different places.

A word on the IC50: it is the concentration that inhibits the measured activity by half. Turning to `CCN1CCN(c2cc(-c3ccc(F)cc3)c3c(n2)CCCCCC3)CC1` [Blonanserin], the IC50 in [1] (Calu-3 cells, MOI 0.5, 24 h) is above 50 µM; in series [6] it was 12 µM. In addition, the “inhibitory activity against M^pro” value in [2] is on record as “showed inhibitory activities”. For the same molecule, the Cmax in [3] (setting [12]) was around 0.003 µM. Also, the figures for the CC50 at 24 h in [4] and in [5] were 30.3 µM and above 50 µM, respectively.

With `Cc1cc(O)c2c(=O)c3c(O)cc(O)c4c5c(O)cc(O)c6c(=O)c7c(O)cc(C)c8c1c2c(c34)c(c78)c65` [Hypericin], the IC50 in series [1] (read-out: SARS-CoV-2 IC50 in Calu-3 cells) was above 50 µM; in series [6], 19.3 µM. The CC50 in series [7] and in series [8] was above 50 µM in each case. For the same molecule, in series [3] (setting [12]), the Cmax was around 0.008 µM.

Consider `O=C(Nc1cc(C(F)(F)F)cc(C(F)(F)F)c1)Nc1ccc(Br)cc1-c1nnn[nH]1` [NS-3728], for which the IC50 in [1] (Calu-3 cells, MOI 0.5, 24 h) was above 50 µM; in series [6], 28.4 µM. Also, the CC50 at 24 h in [7] and in series [8] was above 50 µM each time. In series [3] (in vivo, po), the Cmax was around 36.5 µM.

Broadly, the inhibition is the percentage by which the read-out fell short of the control. Usually viability stands for a read-out of living cells in per cent, often relative to untreated cells. Consider `Cn1cncc1[C@@](N)(c1ccc(Cl)cc1)c1ccc2c(c1)c(-c1cccc(Cl)c1)cc(=O)n2C` [Tipifarnib], for which the IC50 was 4.57 µM in [1] (Calu-3 cells, MOI 0.5, 24 h) and 11 µM in series [6]. The inhibition at 0.69 µM came out at 4% in series [9] (Fig. 4D, Omipalisib 0.00 μM) and 0% in [9] (Fig. 4G, Remdesivir 0.00 μM). For the same molecule, the inhibition at 1.38 µM in series [9] (Fig. 4D, Omipalisib 0.00 μM) is 4%; in series [9] (Fig. 4G, Remdesivir 0.00 μM), 0%. For the same molecule, the inhibition at 2.75 µM in series [9] (Fig. 4D, Omipalisib 0.00 μM) was 6%; in series [9] (Fig. 4G, Remdesivir 0.00 μM), 0%. The inhibition at 5.5 µM in series [9] (Fig. 4D, Omipalisib 0.00 μM) amounted to 11%; in series [9] (Fig. 4G, Remdesivir 0.00 μM), 10%. The inhibition at 11 µM is 91% in series [9] (Fig. 4D, Omipalisib 0.00 μM) and 93% in series [9] (Fig. 4G, Remdesivir 0.00 μM). For the same molecule, the inhibition at 22.01 µM in [9] (Fig. 4D, Omipalisib 0.00 μM) was 100%; in series [9] (Fig. 4G, Remdesivir 0.00 μM), 100%. Also, the inhibition at 44.02 µM amounted to 92% in [9] (Fig. 4D, Omipalisib 0.00 μM) and 87% in series [9] (Fig. 4G, Remdesivir 0.00 μM). For the same molecule, the viability in series [10] (Fig. 4E, Tipifarnib 0.69 μM, Omipalisib 0.00 μM) was found to be 90%; in series [10] (Fig. 4E, Tipifarnib 1.38 μM, Omipalisib 0.00 μM), 91%; in series [10] (Fig. 4E, Tipifarnib 2.75 μM, Omipalisib 0.00 μM), 90%; in series [10] (Fig. 4E, Tipifarnib 5.50 μM, Omipalisib 0.00 μM) it was 91%; in series [10] (Fig. 4E, Tipifarnib 11.00 μM, Omipalisib 0.00 μM) it was 76%; in series [10] (Fig. 4E, Tipifarnib 22.01 μM, Omipalisib 0.00 μM) it was 7%. In addition, the viability worked out at 0% in series [10] (Fig. 4E, Tipifarnib 44.02 μM, Omipalisib 0.00 μM); 91% in series [10] (Fig. 4H, Tipifarnib 0.69 μM, Remdesivir 0.00 μM); 90% in [10] (Fig. 4H, Tipifarnib 1.38 μM, Remdesivir 0.00 μM); 89% in [10] (Fig. 4H, Tipifarnib 2.75 μM, Remdesivir 0.00 μM); 88% in series [10] (Fig. 4H, Tipifarnib 5.50 μM, Remdesivir 0.00 μM); 80% in series [10] (Fig. 4H, Tipifarnib 11.00 μM, Remdesivir 0.00 μM). Moreover, the viability is 6% in [10] (Fig. 4H, Tipifarnib 22.01 μM, Remdesivir 0.00 μM) and 0% in [10] (Fig. 4H, Tipifarnib 44.02 μM, Remdesivir 0.00 μM). The Cmax in series [3] (setting [12]) is around 8.6 µM. The CC50 at 24 h in series [4] was 16.6 µM; in [5], above 50 µM.

`CCN(CC)CCCC(C)Nc1ccnc2cc(Cl)ccc12` (stereo not drawn) [chloroquine]: the “antiviral activity against SARS-CoV-2 in Vero cells” value in series [11] is “showed antiviral activity”.

In the case of `Cc1cccc(C)c1OCC(=O)N[C@@H](Cc1ccccc1)[C@@H](O)C[C@H](Cc1ccccc1)NC(=O)[C@H](C(C)C)N1CCCNC1=O` [lopinavir], in series [11], the “antiviral activity against SARS-CoV-2 in Vero cells” value is given as “showed antiviral activity”.

Source of the values: paper PMC8325362, “Drugs repurposed for COVID-19 by virtual screening of 6,218 drugs and cell-based assay” (Proceedings of the National Academy of Sciences of the …, 2021).
